Results: patent US5536723A, “S-nitroso derivatives of hydrazinoacetic acids, 1-[(acylthio and (mercapto)-1-oxoalkyl]-1,2,34-Tetrahydroquinoline-2-carboxylic acids and alanyl prolines and isoquinolines” (Brigham & Women's Hospital, priority 1994, dated 1996)

Tests used:
[1] = target: T1, ACE (Rattus norvegicus, UniProt P47820); assay: ACE inhibition, rat lung source of ACE; assay type: biochemical; details: 10^-10 to 10^-8
T1 sequence (P47820 36-1313): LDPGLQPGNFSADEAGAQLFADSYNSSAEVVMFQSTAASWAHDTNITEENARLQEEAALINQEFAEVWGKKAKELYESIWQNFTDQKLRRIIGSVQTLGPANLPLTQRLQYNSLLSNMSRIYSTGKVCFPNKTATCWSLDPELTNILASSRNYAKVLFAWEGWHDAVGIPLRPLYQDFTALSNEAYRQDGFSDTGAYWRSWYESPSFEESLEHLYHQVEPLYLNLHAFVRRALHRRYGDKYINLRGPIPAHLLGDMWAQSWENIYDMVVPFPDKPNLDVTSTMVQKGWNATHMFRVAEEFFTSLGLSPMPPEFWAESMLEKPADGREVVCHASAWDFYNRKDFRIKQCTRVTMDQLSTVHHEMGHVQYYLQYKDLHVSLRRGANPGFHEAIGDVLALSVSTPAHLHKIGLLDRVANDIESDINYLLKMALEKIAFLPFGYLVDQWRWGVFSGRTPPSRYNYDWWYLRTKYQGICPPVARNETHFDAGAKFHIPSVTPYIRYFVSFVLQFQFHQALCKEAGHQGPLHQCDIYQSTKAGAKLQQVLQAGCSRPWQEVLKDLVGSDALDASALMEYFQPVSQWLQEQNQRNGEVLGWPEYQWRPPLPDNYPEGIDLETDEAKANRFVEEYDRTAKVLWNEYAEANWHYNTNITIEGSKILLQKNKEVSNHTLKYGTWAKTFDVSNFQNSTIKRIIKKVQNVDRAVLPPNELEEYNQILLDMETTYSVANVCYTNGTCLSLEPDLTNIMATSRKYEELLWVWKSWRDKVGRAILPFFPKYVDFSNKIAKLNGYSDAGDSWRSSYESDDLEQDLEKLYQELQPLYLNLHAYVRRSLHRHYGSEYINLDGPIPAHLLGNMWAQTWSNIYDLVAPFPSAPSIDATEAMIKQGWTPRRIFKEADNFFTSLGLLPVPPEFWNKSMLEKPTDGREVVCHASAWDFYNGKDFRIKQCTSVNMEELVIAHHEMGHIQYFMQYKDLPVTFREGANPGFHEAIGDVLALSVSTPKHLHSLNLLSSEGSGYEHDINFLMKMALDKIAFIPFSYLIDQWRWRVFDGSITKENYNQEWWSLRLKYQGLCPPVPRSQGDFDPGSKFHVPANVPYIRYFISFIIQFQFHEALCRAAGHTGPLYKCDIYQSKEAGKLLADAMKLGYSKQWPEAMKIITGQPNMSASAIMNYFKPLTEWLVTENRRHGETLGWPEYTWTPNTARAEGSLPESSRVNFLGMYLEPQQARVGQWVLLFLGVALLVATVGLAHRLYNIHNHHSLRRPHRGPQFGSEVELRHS
Method: Under the conditions of this assay (0.1M potassium phosphate, pH 8.3, 0.3M NaCl at 37°), ACE preparations generated 6.32 nmoles of product/mg protein/min.

[2] = test system: bovine femoral artery, contraction to angiotensin I; assay: contraction of the bovine femoral artery to angiotensin I

C[C@H](CSN=O)C(=O)N1CCC[C@H]1C(=O)O [S-nitrosocaptopril]
ACE inhibition (in words, FIG. 6) [1]: almost complete inhibition of ACE
inhibition of contractions to angiotensin I, S-nitrosocaptopril versus captopril (in words) [2]: equally inhibited contractions to angiotensin I
shift in the response to angiotensin I (rounded, discussion) [2]: 50 fold
log shift at the ED50 in the response to angiotensin I ([2]; 10^-6 M, n=6, p<0.001, FIG. 9): 1.74±0.25 log
shift at the ED50 in the response to angiotensin I ([2]; 10^-6 M, n=6, p<0.001, FIG. 9): 56 fold
